From paper PMC5834492, “Antimycobacterial drug discovery using Mycobacteria-infected amoebae identifies anti-infectives and new molecular targets” (Scientific Reports, 2018)
pIC50: −log10 of the molar value.

Tested on: M. marinum GFP
Assay type: cell-based, Mycobacterium marinum
Settings: 10 µM; antibiotic assay

In order of falling “M. marinum GFP normalised growth, control=1.00, mean” value:
1. Br.CC1(C)NC(N)=NC(=N)N1OCCCOc1ccc(Cl)cc1Cl [BRL-51091AM]  1.23
2. Br.Cc1ccccc1OCCCON1C(=N)N=C(N)NC1(C)C [BRL-8903SA]  0.06
3. Br.CC1(C)N=C(N)N=C(N)N1OCCc1ccc2ccccc2c1 [BRL-8088SA]  0.05
4. Br.CC(C)(C)c1ccccc1OCCCON1C(=N)N=C(N)NC1(C)C [BRL-7940SA]  0.04
5. Br.CCc1ccccc1OCCCON1C(=N)N=C(N)NC1(C)C [BRL-10143SA]  0.04

Tested on: M. marinum luxCDABE
Assay type: cell-based, Mycobacterium marinum
Settings: 10 µM

In order of rising “M. marinum luxCDABE normalised growth, control=1.00, mean” value:
1. Br.CC(C)(C)c1ccccc1OCCCON1C(=N)N=C(N)NC1(C)C [BRL-7940SA]  0.00
2. Br.CC1(C)N=C(N)N=C(N)N1OCCc1ccc2ccccc2c1 [BRL-8088SA]  0.00
3. Br.Cc1ccccc1OCCCON1C(=N)N=C(N)NC1(C)C [BRL-8903SA]  0.00
4. Br.CCc1ccccc1OCCCON1C(=N)N=C(N)NC1(C)C [BRL-10143SA]  0.00
5. Br.CC1(C)NC(N)=NC(=N)N1OCCCOc1ccc(Cl)cc1Cl [BRL-51091AM]  0.00

Tested on: Mtb H37Rv in THP-1
Parameters: method as in Sorrentino et al, 2015
Settings: THP1 / Mtb H37Rv infection assay; ref Sorrentino et al, 2015; cited from earlier work

In order of falling “Intracelullar MIC90 in THP-1” value:
1. Br.Cc1ccccc1OCCCON1C(=N)N=C(N)NC1(C)C [BRL-8903SA]  16.65 µM
2. Br.CC1(C)N=C(N)N=C(N)N1OCCc1ccc2ccccc2c1 [BRL-8088SA]  5.55 µM
3. Br.CC1(C)NC(N)=NC(=N)N1OCCCOc1ccc(Cl)cc1Cl [BRL-51091AM]  5.55 µM
4. Br.CC(C)(C)c1ccccc1OCCCON1C(=N)N=C(N)NC1(C)C [BRL-7940SA]  1.85 µM
5. Br.CCc1ccccc1OCCCON1C(=N)N=C(N)NC1(C)C [BRL-10143SA]  1.85 µM

Same assay, conditions: ratio; ref Sorrentino et al, 2015; cited from earlier work

In order of rising “Extracellular MIC90/ Inracellular MIC90” value:
1. Br.Cc1ccccc1OCCCON1C(=N)N=C(N)NC1(C)C [BRL-8903SA]  0.23
2. Br.CC1(C)N=C(N)N=C(N)N1OCCc1ccc2ccccc2c1 [BRL-8088SA]  0.41
3. Br.CC1(C)NC(N)=NC(=N)N1OCCCOc1ccc(Cl)cc1Cl [BRL-51091AM]  0.63
4. Br.CC(C)(C)c1ccccc1OCCCON1C(=N)N=C(N)NC1(C)C [BRL-7940SA]  1.24
5. Br.CCc1ccccc1OCCCON1C(=N)N=C(N)NC1(C)C [BRL-10143SA]  1.73

Tested on: Mtb H37Rv
Parameters: method as in Sorrentino et al, 2015
Settings: ref Sorrentino et al, 2015; cited from earlier work

In order of rising “Extracellular MIC90” value:
1. Br.CC(C)(C)c1ccccc1OCCCON1C(=N)N=C(N)NC1(C)C [BRL-7940SA]  2.3 µM
2. Br.CC1(C)N=C(N)N=C(N)N1OCCc1ccc2ccccc2c1 [BRL-8088SA]  2.3 µM
3. Br.CCc1ccccc1OCCCON1C(=N)N=C(N)NC1(C)C [BRL-10143SA]  3.2 µM
4. Br.CC1(C)NC(N)=NC(=N)N1OCCCOc1ccc(Cl)cc1Cl [BRL-51091AM]  3.5 µM
5. Br.Cc1ccccc1OCCCON1C(=N)N=C(N)NC1(C)C [BRL-8903SA]  3.8 µM

Tested on: M. marinum in A. castellanii
Assay type: cell-based, Mycobacterium marinum
Settings: 10 µM

In order of falling “A. castellanii / M. marinum normalised growth, control=1.00, mean” value:
1. Br.CC(C)(C)c1ccccc1OCCCON1C(=N)N=C(N)NC1(C)C [BRL-7940SA]  2.62
2. Br.CCc1ccccc1OCCCON1C(=N)N=C(N)NC1(C)C [BRL-10143SA]  2.62
3. Br.Cc1ccccc1OCCCON1C(=N)N=C(N)NC1(C)C [BRL-8903SA]  2.27
4. Br.CC1(C)N=C(N)N=C(N)N1OCCc1ccc2ccccc2c1 [BRL-8088SA]  2.26
5. Br.CC1(C)NC(N)=NC(=N)N1OCCCOc1ccc(Cl)cc1Cl [BRL-51091AM]  1.95

Tested on: D. discoideum GFP-ABD
Settings: 10 µM

In order of rising “D. discoideum GFP-ABD normalised growth, control=1.00, mean” value:
1. Br.CCc1ccccc1OCCCON1C(=N)N=C(N)NC1(C)C [BRL-10143SA]  0.53
2. Br.CC(C)(C)c1ccccc1OCCCON1C(=N)N=C(N)NC1(C)C [BRL-7940SA]  0.67
3. Br.CC1(C)N=C(N)N=C(N)N1OCCc1ccc2ccccc2c1 [BRL-8088SA]  0.71
4. Br.Cc1ccccc1OCCCON1C(=N)N=C(N)NC1(C)C [BRL-8903SA]  0.88
5. Br.CC1(C)NC(N)=NC(=N)N1OCCCOc1ccc(Cl)cc1Cl [BRL-51091AM]  0.97

Tested on: M. marinum in BV2 microglial cells
Assay type: cell-based, Mycobacterium marinum
Settings: not given

In order of falling pIC50:
1. Br.CC1(C)NC(N)=NC(=N)N1OCCCOc1ccc(Cl)cc1Cl [BRL-51091AM]  5.74
2. Br.CC1(C)N=C(N)N=C(N)N1OCCc1ccc2ccccc2c1 [BRL-8088SA]  5.55
3. Br.CC(C)(C)c1ccccc1OCCCON1C(=N)N=C(N)NC1(C)C [BRL-7940SA]  5.50
4. Br.CCc1ccccc1OCCCON1C(=N)N=C(N)NC1(C)C [BRL-10143SA]  5.38
5. Br.Cc1ccccc1OCCCON1C(=N)N=C(N)NC1(C)C [BRL-8903SA]  5.37

Same assay, conditions: 10 µM

In order of rising “BV2 / M. marinum normalised growth, control=1.00, mean” value:
1. Br.CC1(C)NC(N)=NC(=N)N1OCCCOc1ccc(Cl)cc1Cl [BRL-51091AM]  0.51
2. Br.CC1(C)N=C(N)N=C(N)N1OCCc1ccc2ccccc2c1 [BRL-8088SA]  0.52
3. Br.Cc1ccccc1OCCCON1C(=N)N=C(N)NC1(C)C [BRL-8903SA]  0.52
4. Br.CC(C)(C)c1ccccc1OCCCON1C(=N)N=C(N)NC1(C)C [BRL-7940SA]  0.53
5. Br.CCc1ccccc1OCCCON1C(=N)N=C(N)NC1(C)C [BRL-10143SA]  0.55
